Assay results as given in patent US11873290B2, “Pyridazinone compounds and uses thereof” (Edgewise Therapeutics, Inc., priority 2018, dated 2024).
pIC50: −log10 of the molar value.

Target: skeletal myofibrils (myosin ATPase activity)
Assay: Skeletal Myofibril ATPase Assay
Format: biochemical
Settings: PK-LDH coupled, absorbance at 340 nm
Experimental: Overview: Myosin ATPase activity is assessed by using a coupled reaction system, in which ADP generated by the myosin ATPase function is coupled to the disappearance of NADH through the pyruvate kinase/lactate dehydrogenase (PK-LDH) system. Myosin ATPase activity produces ADP, which is used as a substrate for PK to produce pyruvate and regenerate ATP. The pyruvate is then used as a substrate by LDH to oxidize NADH to NAD+. The rate of the reaction is monitored through the time-dependent disappearance of NADH using absorbance at 340 nm. Inhibition of ATPase activity by the assayed compounds is indicated by a reduced rate of NADH loss, relative to vehicle-treated controls, over the experimental time window. To assess the selectivity of the assayed compounds for skeletal myofibrils, the compounds are counter-screened in cardiac myofibrils.
Materials: The following stock solutions and reagents were used in the Skeletal Myofibril ATPase Assay:
Stock Solutions of pCa buffer. Combine PIPES, CaCl2, and EGTA solutions with 70 mL of water. Adjust pH to 7.0 and bring final volume to 100 mL.
Skeletal Myofibril ATPase Assay Procedure: BSA, ATP, NADH, PEP, and DTT solutions were thawed at room temperature, then transferred to ice. Pellet-frozen myofibrils (approximately twice the required volume) were transferred into a sufficiently large tube and capped. Myofibrils were thawed by rolling in a water bath for approximately 15 min at room temperature and cooled on ice. Buffers A and B were prepared by adjusting volumes as necessary for required number of wells and stored on ice. 0.5 μL of the compounds to be assayed were added into wells of a 384-well plate. Buffers A and B were mixed by inversion immediately prior to use, then 25 μL of each was dispensed using a Multidrop dispenser (Buffer A first, then Buffer B). The absorbance within the wells was measured at 340 nm, using a kinetic protocol in which the wells are read every 1.5-2 min for 1 h. The reaction rate was qualitatively assessed by subtracting the minimum absorbance value from the maximum value for each well, using either the SoftMax Pro plate reader software or a spreadsheet program such as Excel. Using GraphPad Prism 8.0, the data was normalized, with 100% activity defined as the absorbance change in the 1% DMSO vehicle wells and 0% assigned to no change in absorbance over the course of the experiment. The normalized data were fit to a variable-slope four-parameter logistic model, constraining the bottom to be 0 or greater. Compounds of Table 1 to 4 were tested and results of the assay appear in Table 5 herein. A=IC50 is less than or equal to 10 μM; B=IC50 is greater than 10 μM and less than 100 μM; C=IC50 is greater than 100 μM; […].

First: O=c1ccc(-c2cnc(OCC(F)(F)F)nc2)nn1Cc1cnccc1O [Compound 78, 2-((4-hydroxypyridin-3-yl)methyl)-6-(2-(2,2,2-trifluoroethoxy)pyrimidin-5-yl)pyridazin-3(2H)-one]
Second: O=c1ccc(-c2cnc(OCC(F)(F)F)nc2)nn1Cc1cnco1 [Compound 53, 2-(oxazol-5-ylmethyl)-6-(2-(2,2,2,- trifluoroethoxy)pyrimidin-5-yl)pyridazin-3(2H)-one]
The pIC50 of the first is lower: under 4.00 for the first, over 5.00 for the second.

Compared with `O=c1ccc(-c2cnc(OCC(F)(F)F)nc2)nn1Cc1nnc(-c2ccc(O)nc2)s1` [Compound 45, 2-((5-(6-hydroxypyridin-3-yl)-1,3,4-thiadiazol-2-yl)methyl)-6-(2-(2,2,2-trifluoroethoxy)pyrimidi-5-yl)pyridazin-3(2H)-one], `O=c1ccc(-c2cnc(OCC(F)(F)F)nc2)nn1Cc1cnc(O)c(Cl)c1` [Compound 84, 2-((5-chloro-6-hydroxypyridin-3-yl)methyl)-6-(2-(2,2,2-trifluoroethoxy)pyrimidin-5-yl)pyridazin-3(2H)-one] is lower in pIC50: 4.00 to 5.00 for the first, under 4.00 for the second. The first is the more potent here.

`CSCOc1ncc(-c2ccc(=O)n(Cc3cncc(F)c3)n2)cn1` [Compound 108, 2-((5-fluoropyridin-3-yl)methyl)-6-(2-((methylthio)methoxy)pyrimidin-5-yl)pyridazine-3(2H)-one] and `COc1ncc(-c2ccc(=O)n(Cc3cncc(F)c3)n2)cn1` [Compound 69, 2-((5-fluoropyridin-3-yl)methyl)-6-(2-methoxypyrimidin-5-yl)pyridazine-3(2H)-one] cannot be ordered by pIC50: over 5.00 for the first, over 5.00 for the second.

`O=c1ccc(-c2cnc(OCC(F)(F)F)nc2)nn1Cc1ccc2[nH]ncc2c1` [Compound 96, 2-((1H-indazol-5-yl)methyl)-6-(2-(2,2,2-trifluoroethoxy)pyrimidin-5-yl)pyridazin-3(2H)-one] and `Cc1cncc(Cn2nc(-c3cnc(OCC(F)(F)F)nc3)ccc2=O)c1` [Compound 101, 2-((5-methylpyridin-3-yl)methyl)-6-(2-(2,2,2-trifluoroethoxy)pyrimidin-5-yl)pyridazine-3(2H)-one] cannot be ordered by pIC50: over 5.00 for the first, over 5.00 for the second.

`Cc1csc(Cn2nc(-c3ccc(OC(F)F)cc3)ccc2=O)n1` [Compound 205, 6-(4-(difluoromethoxy)phenyl)-2-((4-methylthiazol-2-yl)methyl) pyridazine-3(2H)-one] and `O=c1ccc(-c2ccc(OC(F)F)cc2)nn1Cc1nc(C2CC2)cs1` [Compound 210, 2-((4-cyclopropylthiazol-2-yl)methyl)-6-(4-(difluoromethoxy)phenyl) pyridazine-3(2H)-one] cannot be ordered by pIC50: over 5.00 for the first, over 5.00 for the second.

`O=c1ccc(-c2cnc(OCC(F)(F)F)nc2)nn1Cc1cncc(F)n1` [Compound 118, 2-((6-fluoropyrazin-yl)methyl)-6-(2-(2,2,2-trifluoroethoxy)pyrimidin-5-yl)pyridazin-3(2H)-one] and `Cc1ncc(Cn2nc(-c3cnc(OCC(F)(F)F)nc3)ccc2=O)o1` [Compound 60, 2-((2-methyloxazol-5-yl)methyl)-6-(2-(2,2,2-trifluoroethoxy)pyrimidin-5-yl)pyridazin-3(2H)-one] cannot be ordered by pIC50: over 5.00 for the first, over 5.00 for the second.

Compared with `Cc1ncc(Cn2nc(-c3cnc(OCC(F)(F)F)nc3)ccc2=O)cc1F` [Compound 52, 2-((5-fluoro-6-methylpyridin-3-yl)methyl)-6-(2-(2,2,2-trifluoroethoxy)pyrimidin-5-yl)pyridazin-3(2H)-one], `O=c1ccc(-c2cnc(OCC(F)(F)F)nc2)nn1Cc1cnoc1` [Compound 85, 2-(isoxazol-4-ylmethyl)-6-(2-(2,2,2-trifluoroethoxy)pyrimidin-5-yl)pyridazin-3(2H)-one] is lower in pIC50: over 5.00 for the first, 4.00 to 5.00 for the second. The first is the more potent here.

`[2H]C(C)(C)COc1ncc(-c2ccc(=O)n(Cc3cncc(F)c3)n2)cn1` [Compound 131, 2-((5-fluoropyridin-3-yl)methyl)-6-(2-(2-methylpropoxy-2-d)pyrimidin-5-yl)pyridazin-3(2H)-one] and `CC(C)Oc1ncc(-c2ccc(=O)n(Cc3cncc(F)c3)n2)cn1` [Compound 115, 2-((5-f1uoropyridin-3-yl)methyl)-6-(2-isopropoxypyrimidin-5-yl)pyridazine-3(2H)-one] cannot be ordered by pIC50: over 5.00 for the first, over 5.00 for the second.

Compared with `O=c1ccc(-c2ccc(OC(F)F)nc2)nn1Cc1cn[nH]c1-c1ccccc1` [Compound 23, 6-(6-(difluoromethoxy)pyridin-3-yl)-2-((5-phenyl-1H-pyrazol-4-yl)methyl)pyridazin-3(2H)-one], `O=c1ccc(-c2ccc(OC(F)F)cc2)nn1Cc1nc(-c2ccccc2)no1` [Compound 202, 6-(4-(difluoromethoxy)phenyl)-2-((3-phenyl-1,2,4-oxadiazol-5-yl)methyl)pyridazine-3(2H)-one] is higher in pIC50: under 4.00 for the first, over 5.00 for the second. The second is the more potent here.

`CCCc1ncc(Cn2nc(-c3cnc(OCC(F)(F)F)nc3)ccc2=O)s1` [Compound 116, 2-((2-propylthiazol-5-yl)methyl)-6-(2-(2,2,2-trifluoroethoxy)pyrimidin-5-yl)pyridazine-3(2H)-one] and `CSCc1ncc(Cn2nc(-c3cnc(OCC(F)(F)F)nc3)ccc2=O)s1` [Compound 109, 2-((2-((methylthio)methyl)thiazol-5-yl)methyl)-6-(2-(2,2,2-trifluoroethoxy)pyrimidin-5-yl)pyridazine-3(2H)-one] cannot be ordered by pIC50: over 5.00 for the first, over 5.00 for the second.

`O=c1ccc(-c2ccc(NC34CC(C3)C4)nc2)nn1Cc1cccnc1` [Compound 71] and `O=c1ccc(-c2ccc(OC(F)F)nc2)nn1Cc1cncc(Cl)c1` [Compound 2] cannot be ordered by pIC50: over 5.00 for the first, over 5.00 for the second.

`O=c1ccc(-c2cnc(OCC3(F)COC3)nc2)nn1Cc1nnc(-c2ccccc2)s1` [Compound 92, 6-(2-((3-fluorooxetan-3-yl)methoxy)pyrimidin-5-yl)-2-((5-phenyl-1,3,4-thiadiazol-2-yl)methyl)pyridazin-3(2H)-one] and `O=c1ccc(-c2ccc(OC(F)F)nc2)nn1Cc1nnc(-c2ccc(F)cc2)s1` [Compound 17] cannot be ordered by pIC50: over 5.00 for the first, over 5.00 for the second.

First: O=c1ccc(-c2cnc(OCC(F)(F)F)nc2)nn1Cc1ccc[n+]([O-])c1 [Compound 80, 3-((6-oxo-3-(2-(2,2,2-trifluoroethoxy)pyrimidin-5-yl)pyridazin-1(6H)-yl)methyl)pyridine 1-oxide]
Second: O=c1ccc(-c2cnc(OCCOC(F)(F)F)nc2)nn1Cc1cncc(F)c1 [Compound 97, 2-((5-fluoropyridin-3-yl)methyl)-6-(2-(2-(trifluoromethoxy)ethoxy)pyrimidin-5-yl)pyridazine-3(2H)-one]
The pIC50 of the first is lower: under 4.00 for the first, over 5.00 for the second.

`Cc1nc(Cn2nc(-c3ccc(Cl)cc3)ccc2=O)no1` [Compound 350, 6-(4-chlorophenyl)-2-((5-methyl-1,2,4-oxadiazol-3-yl)methyl)pyridazin-3(2H)-one] and `Cc1nnc(Cn2nc(-c3ccc(OC(F)F)cc3)ccc2=O)[nH]1` [Compound 227, 6-(4-(difluoromethoxy)phenyl)-2-((5-methyl-4H-1,2,4-triazol-3-yl)methyl)pyridazin-3(2H)-one] cannot be ordered by pIC50: under 4.00 for the first, under 4.00 for the second.

`O=c1ccc(-c2cnc(OCC3CC3)nc2)nn1Cc1cncc(F)c1` [Compound 119, 6-(2-(cyclopropylmethoxy)pyrimidin-5-yl)-2-((5-fluoropyridin-3-yl)methyl)pyridazine-3(2H)-one] and `COCCOc1ncc(-c2ccc(=O)n(Cc3cncc(F)c3)n2)cn1` [Compound 70, 2-((5-fluoropyridin-3-yl)methyl)-6-(2-(2-methoxyethoxy)pyrimidin-5-yl)pyridazine-3(2H)-one] cannot be ordered by pIC50: over 5.00 for the first, over 5.00 for the second.

Compared with `Cc1cnc(Cn2nc(-c3ccc(OC(F)F)cc3)ccc2=O)[nH]1` [Compound 224, 6-(4-(difluoromethoxy)phenyl)-2-((5-methyl-1H-imidazol-2-yl)methyl)pyridazin-3(2H)-one], `COc1ccc(-c2ccc(=O)n(Cc3nc(-c4ccc(OC)cc4)no3)n2)cc1` [Compound 305, 6-(4-methoxyphenyl)-2-((3-(4-methoxyphenyl)-1,2,4-oxadiazol-5 yl)methyl)pyridazin-3(2H)-one] is higher in pIC50: under 4.00 for the first, over 5.00 for the second. The second is the more potent here.

`COC(C)(C)COc1ncc(-c2ccc(=O)n(Cc3cncc(F)c3)n2)cn1` [Compound 125, 2-((5-fluoropyridin-3-yl)methyl)-6-(2-(2-methoxy-2-methylpropoxy)pyrimidin-5-yl)pyridazine-3(2H)-one] and `O=c1ccc(-c2cnc(N3CCC[C@H]3C(F)(F)F)nc2)nn1Cc1cncc(F)c1` [Compound 74, (S)-2-((5-fluoropyridin-3-yl)methyl)-6-(2-(2-(trifluoromethyl)pyrrolidin-1-yl)pyrimidin-5-yl)pyridazin-3(2H)-one] cannot be ordered by pIC50: over 5.00 for the first, over 5.00 for the second.
